# From patent publication US20240390335A1, “PHARMACEUTICAL COMPOSITION CONTAINING BETA-LACTAM COMPOUND AND USE THEREOF” (priority 2021, published 2024)
# Like-named read-outs stand apart in the source and are kept apart here.
# Tests used:
# [1] = test system: Klebsiella pneumoniae ATCC BAA2146 (NDM-1); assay: Protective effect on mice systemically infected (survival within 7 days); format: in vivo, ICR mice; conditions: for Number of animals survived: 5 mice
# Experimental: ICR mice (half male and half female) with healthy appearance and a weight of 18 to 22 g were used. The mice were randomly grouped, with 5 mice (either male or female) in each dose group.
# To the mice infected intraperitoneally with NDM-1-producing Klebsiella pneumoniae (at a dose of 3.0×10^6 CFU), drugs were administered once through the tail vein at certain doses (see Table 5) at 1 h and 6 h respectively after the infection for a total of two administrations, with the volume of the drugs administered being 10 mL/kg. The survival of the animals in each group was observed within 7 days, and the survival rates of the mice were calculated. The control group was not given any drugs, and given only physiological saline, and the seven-day survival rate of the mice was 0.
# The protective effects of the compound of formula (I-1) administered alone and in combination with avibactam on mice systemically infected with Klebsiella pneumoniae ATCC BAA2146 (NDM-1) are shown in Table 5.
# Acinetobacter baumannii [2] = assay: Combined in vitro use, checkerboard dilution method; format: cell-based
# Experimental: (§1) Mueller-Hinton broth (MH broth) medium, Trypticase Soy Broth (TSB Broth) medium, purchased from BD Difco, Cockeysville, MD, USA; • 96-well plate: Corning Costar, Cambridge, MA, USA; • Test method: the checkerboard dilution method was used for determination.
# (§2) (1) Preparation of the test samples: 4 mg of each sample was taken and was prepared into a test solution at 2,048 μg/mL with MH broth, and the test solution was diluted two-fold in a 96-well plate to prepare solutions of a series of gradient concentrations.
# (§3) (2) Preparation of a bacteria solution: The test strains were amplified by Trypticase Soy Broth (TSB Broth) according to the CLSI/NCCLS standard.
# (§4) (3) Addition of the samples: 10 μL of the bacteria solution with a concentration of 6×10^5 CFU/mL was pipetted into each well of the 96-well plate. Each well contained the antibacterial drugs (the compound of formula (I-1) and the compound of formula (I-2)) diluted two-fold with broth and the aforementioned lactamase inhibitor or efflux pump inhibitor. […] The samples were mixed thoroughly. Three parallel experiments were set up for each concentration and the results were averaged. To the negative control group, 10 μL of the bacterial solution and 90 μL MH broth were added.
# (§5) (4) Incubation: the 96-well plate was placed in a 37° C. constant-temperature incubator for 18 hours, and the growth of the strains was observed.
# (§6) (5) Calculation: The in vitro effect of each drug-inhibitor combination was analyzed by calculating the FICI value: FICI=(MIC of drug A in the combination/MIC of drug A alone)+ (MIC of drug B in the combination/MIC of drug B alone).
# (§7) In order to ensure the reliability of the data, three repeated tests were conducted on different dates and the results were averaged.
# Pseudomonas aeruginosa [3] = assay: as above; format: cell-based
# Experimental: as §1, §2, §3, §4, §5, §6, §7
# Escherichia coli = assay: MIC assay of individual compounds (microdilution, CLSI/NCCLS); format: cell-based; conditions: individual compound, read-out: MIC
# Experimental: (§8) Mueller-Hinton broth (MH broth) medium, Trypticase Soy Broth (TSB Broth) medium, purchased from BD Difco, Cockeysville, MD, USA; • 96-well plate: Corning Costar, Cambridge, MA, USA; • Test method: the antibacterial activities were tested by the microdilution method according to the CLSI/NCCLS standard.
# (§9) (1) Preparation of the test samples: 4 mg of each sample was taken, and was prepared into a test solution at 1,024 μg/mL with MH broth, and the test solution was diluted two-fold in a 96-well plate to prepare solutions of a series of gradient concentrations, the volume in each well being 90 μL.
# as §3
# (§10) (3) Addition of the samples: a bacteria solution with a concentration of 6×10^5 cfu/mL was prepared, and 10 μL of the bacteria solution was pipetted into each well of the 96-well plate. Three parallel experiments were set up for each concentration and the results were averaged. To the negative control group, 10 μL of the bacterial solution and 90 μL MH broth were added.
# (§11) (4) Incubation: the 96-well plate was placed in a 37° C. constant-temperature incubator for 18 hours, and the growth of the strains was observed. The drug concentration in the well with no microbial growth was recorded as the MIC.
# Acinetobacter baumannii [4] = assay: as above; format: cell-based; conditions: individual compound, read-out: MIC
# Experimental: as §8, §9, §3, §10, §11
# Pseudomonas aeruginosa [5] = assay: as above; format: cell-based; conditions: individual compound, read-out: MIC
# Experimental: as §8, §9, §3, §10, §11
# Klebsiella pneumoniae = assay: as above; format: cell-based; conditions: Klebsiella pneumoniae, read-out: MIC
# Experimental: as §8, §9, §3, §10, §11
# Enterobacter cloacae = assay: as above; format: cell-based; conditions: individual compound, read-out: MIC
# Experimental: as §8, §9, §3, §10, §11
# [6] = test system: drug-resistant Enterobacteriaceae strains; assay: Checkerboard combination, summary over Enterobacteriaceae strains; format: cell-based; conditions: combined with avibactam; all of the 12 drug-resistant Enterobacteriaceae strains tested
# Experimental: as §1, §2, §3
# (3) Addition of the samples: 10 μL of the bacteria solution with a concentration of 6×10^5 CFU/mL was pipetted into each well of the 96-well plate. Each well contained the antibacterial drugs (the compound of formula (I-1) and the compound of formula (I-2)) diluted two-fold with broth and the aforementioned lactamase inhibitor or efflux pump inhibitor. […] The samples were mixed thoroughly. Three parallel experiments were set up for each concentration and the results were averaged. […]
# (5) Calculation: The in vitro effect of each drug-inhibitor combination was analyzed by calculating the FICI value: FICI=(MIC of drug A in the combination/MIC of drug A alone)+ (MIC of drug B in the combination/MIC of drug B alone). […]
# [7] = individual compound 16 mg/kg i.v. (tail vein) at 1 h and 6 h after infection
# [8] = individual compound 32 mg/kg i.v. (tail vein) at 1 h and 6 h after infection
smiles,measurement,setting,value
CC1(C)[C@H](NC(=O)/C(=N\OC2(C(=O)O)CC2)c2csc(N)n2)C(=O)N1OS(=O)(=O)O [Compound of formula (I-1)],Survival rate of animals (%),[1]; [7],20%
same,Number of animals survived,[1]; [7],1
same,Survival rate of animals (%),[1]; [8],60%
same,Number of animals survived,[1]; [8],3
same,reduction of MIC values on combination,"Acinetobacter baumannii [2]; combined with berberine, Acinetobacter baumannii ATCC19606 and ATCC17978",four-fold
same,reduction of MIC values on combination,"Acinetobacter baumannii [2]; combined with conessine, Acinetobacter baumannii ATCC19606",four-fold
same,MIC in combination,"Acinetobacter baumannii [2]; compound of formula (I-1) combined with PAβN, Acinetobacter baumannii ATCC 17978",16 µg/mL
same,MIC in combination,"Acinetobacter baumannii [2]; compound of formula (I-1) combined with PAβN, Acinetobacter baumannii ATCC 19606",16 µg/mL
same,MIC in combination,"Acinetobacter baumannii [2]; compound of formula (I-1) combined with PAβN, Acinetobacter baumannii CCPM(A)-P-101633(CRAB)",16 µg/mL
same,MIC in combination,"Acinetobacter baumannii [2]; compound of formula (I-1) combined with berberine, Acinetobacter baumannii ATCC 17978",4 µg/mL
same,MIC in combination,"Acinetobacter baumannii [2]; compound of formula (I-1) combined with berberine, Acinetobacter baumannii ATCC 19606",4 µg/mL
same,MIC in combination,"Acinetobacter baumannii [2]; compound of formula (I-1) combined with berberine, Acinetobacter baumannii CCPM(A)-P-101633(CRAB)",16 µg/mL
same,MIC in combination,"Acinetobacter baumannii [2]; compound of formula (I-1) combined with conessine, Acinetobacter baumannii ATCC 19606",4 µg/mL
same,reduction of MIC values on combination,"Pseudomonas aeruginosa [3]; combined with PAβN, Pseudomonas aeruginosa ATCC27853 and PAO1 (CCPM(A)-P-09000032)",eight-fold
same,reduction of MIC value on combination,"Pseudomonas aeruginosa [3]; combined with PAβN, Pseudomonas aeruginosa CCPM(A)-P-091626 (CRPA)",four-fold
same,MIC in combination,"Pseudomonas aeruginosa [3]; compound of formula (I-1) combined with PAβN, Pseudomonas aeruginosa ATCC27853",2 µg/mL
same,MIC in combination,"Pseudomonas aeruginosa [3]; compound of formula (I-1) combined with PAβN, Pseudomonas aeruginosa CCPM(A)-P-091626(CRPA)",8 µg/mL
same,MIC in combination,"Pseudomonas aeruginosa [3]; compound of formula (I-1) combined with PAβN, Pseudomonas aeruginosa PAO1(CCPM(A)-P-09000032)",2 µg/mL
same,MIC in combination,"Pseudomonas aeruginosa [3]; compound of formula (I-1) combined with berberine, Pseudomonas aeruginosa ATCC27853",16 µg/mL
same,MIC in combination,"Pseudomonas aeruginosa [3]; compound of formula (I-1) combined with berberine, Pseudomonas aeruginosa CCPM(A)-P-091626(CRPA)",32 µg/mL
same,MIC in combination,"Pseudomonas aeruginosa [3]; compound of formula (I-1) combined with berberine, Pseudomonas aeruginosa PAO1(CCPM(A)-P-09000032)",16 µg/mL
same,MIC in combination,"Pseudomonas aeruginosa [3]; compound of formula (I-1) combined with conessine, Pseudomonas aeruginosa PAO1(CCPM(A)-P-09000032)",16 µg/mL
same,MIC,"Escherichia coli; ATCC2469, Escherichia coli ATCC 2469",1 µg/mL
same,MIC,Escherichia coli; Escherichia coli CCPM(A)-P-071301,2 µg/mL
same,MIC,"Acinetobacter baumannii [4]; ATCC17978, Acinetobacter baumannii ATCC 17978",16 µg/mL
same,MIC,"Acinetobacter baumannii [4]; ATCC19606, Acinetobacter baumannii ATCC 19606",16 µg/mL
same,MIC,Acinetobacter baumannii [4]; Acinetobacter baumannii CCPM(A)-P-101633(CRAB),32 µg/mL
same,MIC,Pseudomonas aeruginosa [5]; Pseudomonas aeruginosa ATCC27853,16 µg/mL
same,MIC,Pseudomonas aeruginosa [5]; Pseudomonas aeruginosa CCPM(A)-P-091626(CRPA),32 µg/mL
same,MIC,Pseudomonas aeruginosa [5]; Pseudomonas aeruginosa PAO1(CCPM(A)-P-09000032),16 µg/mL
same,MIC,"Klebsiella pneumoniae; ATCC2146, individual compound, Klebsiella pneumoniae ATCC 2146",2 µg/mL
same,MIC,"Klebsiella pneumoniae; ATCC700603, individual compound, Klebsiella pneumoniae ATCC 700603",4 µg/mL
same,MIC,"Klebsiella pneumoniae; individual compound, Klebsiella pneumoniae CCPM(A)-0814R18",2 µg/mL
same,MIC,"Klebsiella pneumoniae; individual compound, Klebsiella pneumoniae CCPM(A)-0814R33",2 µg/mL
same,MIC,"Klebsiella pneumoniae; individual compound, Klebsiella pneumoniae CCPM(A)-0817R61",64 µg/mL
same,MIC,"Klebsiella pneumoniae; individual compound, Klebsiella pneumoniae CCPM(A)-081301",2 µg/mL
same,MIC,"Klebsiella pneumoniae; individual compound, Klebsiella pneumoniae CCPM(A)-081705",2 µg/mL
same,MIC,"Klebsiella pneumoniae; individual compound, Klebsiella pneumoniae CCPM(A)-081715",2 µg/mL
same,MIC,"Klebsiella pneumoniae; individual compound, Klebsiella pneumoniae CCPM(A)-081716",128 µg/mL
same,MIC,"Klebsiella pneumoniae; individual compound, Klebsiella pneumoniae CCPM(A)-081729",2 µg/mL
same,MIC,"Enterobacter cloacae; ATCC2468, Enterobacter cloacae ATCC 2468",2 µg/mL
same,MIC,Enterobacter cloacae; Enterobacter cloacae CCPM(A)-P-111719,1 µg/mL
same,change of MIC values on combination,[6],significantly reduced
